{
  "source": "patent US8859490B2",
  "about": "“Peptide nucleic acid monomers and oligomers” (Nanyang Technological University, priority 2008, dated 2014)",
  "note": "Entries after “also recorded” stand apart in the source; their conditions may differ.",
  "data": [
    {"tested_on": "Hela cells", "assay": "Cell uptake of FAM-labelled oligomers, fluorescence confocal microscopy", "assay_type": "cell-based", "settings": "fluorescein-labelled, 0.5 μM, 24 h, 37° C.", "description": "Culture and transfection of Hela cells with fluorescein-labeled aegPNA, AP-PNA, GP-PNA oligomers and Tat peptide were carried out according to previously published protocols (Janowski, B. A., et al., Nature Protocols (2006) 1, 436; Shiraishi, T., &. Nielsen, P. E., Nature Protocols (2006) 1, 633). Hela cells were grown in 75-cm^2 culture flasks at 37° C. in an atmosphere of 5% CO2 in Hyclone DMEM/High Glucose medium without antibiotics and were plated at 100,000 cells per well on 6-well Lab-Tek chambered coverglass slides in DMEM medium and cultured two days before transfection. Oligomer solutions were prepared by diluting a 200 μM stock solution at 1×PBS buffer to 0.5 μM with warmed (37° C.) medium. The cell medium was discarded and cells were washed with 1×PBS buffer followed by incubation with the above prepared oligomers at a concentration of 0.5 μM for 24 h at 37° C. in an atmosphere of 5% CO2. The medium was removed and cells were washed with 1×PBS buffer (2 mL×3) and fixed with […]. The cells were imaged with Olympus IX51 fitted with Cool SNAP^HQ camera and analyzed using Metamorph software (Molecular Devices).\nFor the present example the GP-PNA and AP-PNA with the 6-C spacer was chose to examine the cell-uptake activity, since these display the strongest binding affinity when complexed to complementary DNA. Dodecamer aegPNA (Fl-TAGTAGATCACT-Gly-NH2) (SEQ ID NO:1), AP-PNA (Fl-TA^6aGT^6aAG^6aAT^6aCA^6aCT^6a-Gly-NH2) (SEQ ID NO:2), GP-PNA (Fl-TA^6gGT^6gAG^6gAT^6gCA^6gCT^6g-Gly-NH2) (SEQ ID NO:3) oligomers and Tat peptide (Fl-Tyr-Gly-Arg-Lys-Lys-Arg-Arg-Gln-Arg-Arg-Arg-NH2) (SEQ ID NO:4) were synthesized and labeled by fluorescein at the N-terminus. These oligomers were incubated with Hela cells for 24 h at 37° C. and were fixed by paraformaldehyde after PBS (1×) buffer washing. Their uptake properties were determined by fluorescence confocal microscopy. […] To conclude, the guanidino groups pendant from the backbone amide nitrogen confer cell-permeability to the modified PNAs.", "values": [
      {"substance": "Fl-TA^6gGT^6gAG^6gAT^6gCA^6gCT^6g-Gly-NH2 [GP-PNA]", "cell uptake (fluorescence in cells)": "clear and strong fluorescence images were detected in almost all cells; also recorded: readily taken up by Hela cells"},
      {"substance": "Fl-TAGTAGATCACT-Gly-NH2 [aegPNA, reference compound]", "cell uptake (fluorescence in cells)": "poor cell uptake property"},
      {"substance": "Fl-TA^6aGT^6aAG^6aAT^6aCA^6aCT^6a-Gly-NH2 [AP-PNA]", "cell uptake (fluorescence in cells)": "better cell uptake property than the aegPNA; also recorded: moderate enhancement in cell uptake activity compared with aegPNA"}
    ]}
  ]
}
